IC50 data for eleven molecules are collected here from US9249129B2, “Morpholino substituted urea derivatives as mTOR inhibitors” (CELLZOME LIMITED, priority 2010, dated 2016).

One assay concerns the target T1, PI3Kγ (Homo sapiens, UniProt P48736).
T1 construct: endogenous in cells; host or cells: Jurkat cells (ATCC TIB-152) lysate, the only lysate described
Description: kinobeads assay, PI3K gamma (dot blot detection). It counts as binding. The conditions noted are these: Table 4, read-out: Inhibition values (IC50) PI3Kg.

The target in the next assay is T2, PI3Kβ (Homo sapiens, UniProt P42338).
T2 construct: endogenous in cells; host or cells: Jurkat cells (ATCC TIB-152) lysate, the only lysate described
In words: kinobeads assay, PI3K beta (dot blot detection). It is filed as binding. Conditions: Table 4, read-out: Inhibition values (IC50) PI3Kb.

For assay [1], the system named is S6RP serine-240/244 phosphorylation in HEK293T/17 cells. In words: In vitro phospho-S6 cellular assay (pS6RP S240/244). It counts as cell-based. Conditions: Homo sapiens, Table 6, 2 hours, S6RP Ser240/244, read-out: pS6 (phospho-S6 cell assay data, activity level). From the text:
In Vitro Phospho-S6 and Phospho-Akt Cellular Assay
Activation of mTOR signaling results in phosphorylation of several downstream targets. In cells, mTOR exists in two different protein complexes. The mTOR Complex-1 (mTORC1) phosphorylates and activates S6 Kinase 1 (S6K1) and S6 Kinase 2 (S6K2) (also known as p70S6K) which then phosphorylate S6 Ribosomal Protein (S6RP) (also known as RPS6). S6RP is phosphorylated on serine 235, serine 236, serine 240 and serine 244 by both pS6K1 and pS6K2. The mTOR Complex-2 (mTORC2) phosphorylates AKT on serine 473 which activates the AKT signaling pathway.
The assay measures a test compound's inhibition of S6RP serine-240/244 phosphorylation and inhibition of Akt serine-473 phosphorylation in human embryonic kidney derived HEK293T/17 cells (ATCC CRL-11268).
The HEK293T/17 cell line is maintained in DMEM media (Invitrogen catalogue number 41965-039) supplemented with 10% FCS at 37° C. in a 5% CO2 humidified incubator.
Cells are seeded in 96-well plates at 40,000 cells/well (pS6RP S240/244 assay) or 80,000 cells/well (pAkt 5473 assay) in 90 μl growth media (DMEM, 2% FCS). Plates are incubated for 1 hour in a humidified incubator to allow the cells to adhere. Cells are treated with 8 concentrations of test compounds or DMSO alone for controls (final DMSO concentration 0.1%) and incubated at 37° C. for 2 hours. Then 20 μl of 5× concentrated lysis buffer (750 mM NaCl, 100 mM Tris pH7.4, 5 mM EDTA, 5 mM EGTA, 5% Triton X-100) is added, plates are sealed and incubated for 15 minutes at 4° C. with gentle shaking. After cell lysis, 25 μl cell lysate is transferred to a MesoScale plate coated with an antibody to pS6RP Ser240/244 (MesoScale Discovery K150DGD-3) or an antibody to pAkt Ser 473 (MesoScale Discovery K151DGD-3). Plates have been blocked before by incubation with 150 μl MesoScale Discovery Blocking Solution-A for 1 hour at room temperature followed by washing with 150 μl 1× Tris wash buffer per well. After the transfer of the cell lysate to the MSD plate, the pS6RP (or pAkt) protein is captured on the coated antibody by incubation at room temperature for 1 hour with gentle shaking. After the capture step the plate is washed three times with 150 μl of 1× Tris wash buffer per well. Then 25 μl detection antibody conjugated with a Sulfo-Tag is added and incubated for 1 hour at room temperature with gentle shaking. Subsequently the antibody solution is removed and the plate is washed 3 times with 150 μl 1× Tris wash buffer per well and 150 μl Read buffer is added. The plates are analysed on a MSD 2400 Plate Reader (MesoScale Discovery). Data analysis is performed using nonlinear regression for a sigmoidal dose-response with a variable slope.

Assay [2] has as its target T3, DNA-dependent protein kinase (DNA-PK) (Homo sapiens, UniProt P78527).
T3 construct: endogenous in cells; host or cells: Jurkat cells (ATCC TIB-152, clone E6-1), lysate
Description: kinobeads assay, DNA-PK (dot blot detection). It counts as binding. The method, boiled down:
(§1)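 Jurkat cell lysate (5 mg/mL protein) incubated 2 h in the cold with test compound (9-step 1:3 series) and immobilized phenylthiazole/phenylmorpholin-chromen ligand beads. Bead-bound kinases eluted, detected by specific antibody dot blot with infrared readout; IC50 from dose-response curves.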

A further assay addresses T4, mTOR (Homo sapiens, UniProt P42345).
T4 construct: endogenous in cells; host or cells: Jurkat cells (ATCC TIB-152, clone E6-1), lysate
Description: mTOR kinobeads assay (dot blot detection). It counts as binding. The procedure, abridged: as §1

The target in a further assay is T5, PI3Kα (Homo sapiens, UniProt P42336).
T5 construct: endogenous in cells; host or cells: Jurkat cells (ATCC TIB-152) lysate, the only lysate described
In words: kinobeads assay, PI3K alpha (dot blot detection). It is filed as binding. Conditions: Table 4, read-out: Inhibition values (IC50) PI3Ka.

The next assay has as its target T6, PI3K delta (PI3Kd) (Homo sapiens, UniProt O00329).
T6 construct: endogenous in cells; host or cells: Jurkat cells (ATCC TIB-152, clone E6-1), lysate
Description: kinobeads assay, PI3K delta (dot blot detection). It counts as binding. The method, boiled down: as §1

The mark [3] stands for this setting: Table 2, Jurkat cell lysate, read-out: Inhibition values (IC50) DNAPK.
Where [4] appears, read: Table 4, read-out: Inhibition values (IC50) DNAPK.
[5] abbreviates: Table 2, Jurkat cell lysate, read-out: Inhibition values (IC50) mTor.
Where [6] appears, read: Table 4, read-out: Inhibition values (IC50) mTOR.
[7] abbreviates: Table 2, Jurkat cell lysate, read-out: Inhibition values (IC50) PI3Kd.
Setting [8] is: Table 4, read-out: Inhibition values (IC50) PI3Kd.

Molecules are shown by their SMILES. Like-named read-outs stand apart in the source and are kept apart here.

T1 sequence (P48736 whole entry): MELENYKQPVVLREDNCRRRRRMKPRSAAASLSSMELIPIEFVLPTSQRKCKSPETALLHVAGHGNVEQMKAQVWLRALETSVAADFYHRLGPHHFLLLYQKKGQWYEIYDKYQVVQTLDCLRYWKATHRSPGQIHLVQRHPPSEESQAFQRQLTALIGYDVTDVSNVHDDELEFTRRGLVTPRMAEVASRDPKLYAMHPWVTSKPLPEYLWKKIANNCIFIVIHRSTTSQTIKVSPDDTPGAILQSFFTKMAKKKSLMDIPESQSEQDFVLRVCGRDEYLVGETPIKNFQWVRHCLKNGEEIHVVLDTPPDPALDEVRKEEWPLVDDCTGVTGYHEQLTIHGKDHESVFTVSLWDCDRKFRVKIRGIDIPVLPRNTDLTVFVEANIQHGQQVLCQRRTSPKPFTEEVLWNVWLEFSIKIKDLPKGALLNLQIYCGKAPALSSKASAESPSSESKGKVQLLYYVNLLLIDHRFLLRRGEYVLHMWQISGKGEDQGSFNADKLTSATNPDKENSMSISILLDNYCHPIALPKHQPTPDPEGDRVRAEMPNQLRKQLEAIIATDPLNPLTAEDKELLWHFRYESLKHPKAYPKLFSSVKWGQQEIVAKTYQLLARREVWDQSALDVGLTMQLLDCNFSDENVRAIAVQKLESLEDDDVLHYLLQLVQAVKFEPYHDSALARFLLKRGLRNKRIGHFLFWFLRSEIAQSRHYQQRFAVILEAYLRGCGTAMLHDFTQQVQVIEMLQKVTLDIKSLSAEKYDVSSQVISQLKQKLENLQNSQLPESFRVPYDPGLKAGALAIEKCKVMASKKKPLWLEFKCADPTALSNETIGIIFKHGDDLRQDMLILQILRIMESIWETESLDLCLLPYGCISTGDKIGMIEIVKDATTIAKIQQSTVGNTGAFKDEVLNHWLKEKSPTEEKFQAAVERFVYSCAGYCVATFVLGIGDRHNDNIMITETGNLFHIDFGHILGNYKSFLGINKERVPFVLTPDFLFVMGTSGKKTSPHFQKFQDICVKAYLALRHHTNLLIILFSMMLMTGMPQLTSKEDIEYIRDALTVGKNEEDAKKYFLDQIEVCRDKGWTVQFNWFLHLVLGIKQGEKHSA
T5 sequence (P42336 whole entry): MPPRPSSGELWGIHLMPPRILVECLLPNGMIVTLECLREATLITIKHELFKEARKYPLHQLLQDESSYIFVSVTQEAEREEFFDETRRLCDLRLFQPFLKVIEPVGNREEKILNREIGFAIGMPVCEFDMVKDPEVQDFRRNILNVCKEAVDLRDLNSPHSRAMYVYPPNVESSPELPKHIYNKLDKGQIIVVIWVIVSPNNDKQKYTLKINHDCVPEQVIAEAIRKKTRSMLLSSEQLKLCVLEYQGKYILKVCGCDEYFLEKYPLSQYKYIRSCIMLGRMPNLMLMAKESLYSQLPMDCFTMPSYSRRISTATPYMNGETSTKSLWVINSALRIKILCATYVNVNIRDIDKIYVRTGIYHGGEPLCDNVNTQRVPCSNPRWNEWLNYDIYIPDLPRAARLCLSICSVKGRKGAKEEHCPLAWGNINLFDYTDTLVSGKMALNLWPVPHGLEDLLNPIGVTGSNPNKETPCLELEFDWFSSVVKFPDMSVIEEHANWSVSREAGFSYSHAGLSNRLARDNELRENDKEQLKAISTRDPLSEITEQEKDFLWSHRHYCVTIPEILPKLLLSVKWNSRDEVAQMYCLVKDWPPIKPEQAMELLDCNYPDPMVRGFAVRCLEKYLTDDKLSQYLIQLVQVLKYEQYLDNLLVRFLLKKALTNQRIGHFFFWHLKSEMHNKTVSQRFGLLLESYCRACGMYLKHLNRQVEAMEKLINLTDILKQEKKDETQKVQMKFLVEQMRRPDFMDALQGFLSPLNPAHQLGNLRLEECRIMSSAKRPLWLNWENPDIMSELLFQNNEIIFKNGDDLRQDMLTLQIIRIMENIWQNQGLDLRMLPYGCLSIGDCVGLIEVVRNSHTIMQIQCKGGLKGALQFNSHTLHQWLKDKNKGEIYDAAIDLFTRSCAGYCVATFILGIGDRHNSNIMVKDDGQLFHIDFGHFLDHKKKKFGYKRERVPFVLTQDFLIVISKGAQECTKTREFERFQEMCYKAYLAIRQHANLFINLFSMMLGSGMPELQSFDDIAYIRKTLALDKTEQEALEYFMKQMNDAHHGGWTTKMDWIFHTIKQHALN
T5 sequence (P27986 whole entry partner): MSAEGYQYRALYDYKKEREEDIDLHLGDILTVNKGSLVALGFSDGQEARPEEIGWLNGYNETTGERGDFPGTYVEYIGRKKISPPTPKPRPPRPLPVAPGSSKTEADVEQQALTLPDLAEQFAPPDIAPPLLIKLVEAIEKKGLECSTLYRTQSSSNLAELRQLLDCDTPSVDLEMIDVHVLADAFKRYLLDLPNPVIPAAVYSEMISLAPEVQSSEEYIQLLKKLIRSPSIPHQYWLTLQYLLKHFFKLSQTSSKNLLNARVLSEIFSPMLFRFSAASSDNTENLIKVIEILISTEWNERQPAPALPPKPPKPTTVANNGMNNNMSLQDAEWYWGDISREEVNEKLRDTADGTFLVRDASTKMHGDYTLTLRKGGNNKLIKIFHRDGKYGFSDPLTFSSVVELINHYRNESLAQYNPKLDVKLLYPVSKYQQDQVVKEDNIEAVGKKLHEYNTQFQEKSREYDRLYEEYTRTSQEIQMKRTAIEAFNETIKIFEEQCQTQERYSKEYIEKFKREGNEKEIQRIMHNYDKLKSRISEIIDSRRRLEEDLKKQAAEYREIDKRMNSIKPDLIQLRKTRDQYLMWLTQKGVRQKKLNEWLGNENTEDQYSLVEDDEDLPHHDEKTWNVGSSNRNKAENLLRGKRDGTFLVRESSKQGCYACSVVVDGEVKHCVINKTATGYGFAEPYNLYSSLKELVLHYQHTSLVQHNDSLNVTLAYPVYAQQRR
T6 sequence (O00329 whole entry): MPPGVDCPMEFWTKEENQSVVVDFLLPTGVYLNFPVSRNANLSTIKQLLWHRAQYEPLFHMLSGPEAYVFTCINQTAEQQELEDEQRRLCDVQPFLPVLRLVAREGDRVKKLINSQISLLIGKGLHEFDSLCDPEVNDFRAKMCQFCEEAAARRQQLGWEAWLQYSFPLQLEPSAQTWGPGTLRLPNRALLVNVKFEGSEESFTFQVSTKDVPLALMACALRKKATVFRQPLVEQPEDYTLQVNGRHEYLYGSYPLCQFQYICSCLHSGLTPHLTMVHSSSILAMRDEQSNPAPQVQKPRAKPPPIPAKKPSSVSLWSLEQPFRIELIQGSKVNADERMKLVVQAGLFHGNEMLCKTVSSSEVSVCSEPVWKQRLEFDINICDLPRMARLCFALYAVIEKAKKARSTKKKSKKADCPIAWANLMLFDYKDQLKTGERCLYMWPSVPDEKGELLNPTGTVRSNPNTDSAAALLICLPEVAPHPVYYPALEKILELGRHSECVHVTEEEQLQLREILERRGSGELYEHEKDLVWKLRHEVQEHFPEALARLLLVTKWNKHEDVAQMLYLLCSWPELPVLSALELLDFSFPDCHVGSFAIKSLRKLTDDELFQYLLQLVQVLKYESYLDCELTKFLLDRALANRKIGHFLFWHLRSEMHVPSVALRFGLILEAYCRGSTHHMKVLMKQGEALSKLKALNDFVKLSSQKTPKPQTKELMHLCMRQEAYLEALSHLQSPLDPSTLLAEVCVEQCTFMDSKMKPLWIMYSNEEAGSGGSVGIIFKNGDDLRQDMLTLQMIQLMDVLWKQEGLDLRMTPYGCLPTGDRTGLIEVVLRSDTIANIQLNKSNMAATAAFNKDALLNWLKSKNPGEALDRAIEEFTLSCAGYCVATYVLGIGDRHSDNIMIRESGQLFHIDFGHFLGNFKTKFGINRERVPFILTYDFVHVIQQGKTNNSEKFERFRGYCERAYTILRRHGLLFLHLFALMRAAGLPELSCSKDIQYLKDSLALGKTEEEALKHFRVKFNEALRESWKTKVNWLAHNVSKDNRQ
T6 sequence (P27986 whole entry partner): as the sequence (P27986 whole entry partner) above
T2 sequence (P42338 whole entry): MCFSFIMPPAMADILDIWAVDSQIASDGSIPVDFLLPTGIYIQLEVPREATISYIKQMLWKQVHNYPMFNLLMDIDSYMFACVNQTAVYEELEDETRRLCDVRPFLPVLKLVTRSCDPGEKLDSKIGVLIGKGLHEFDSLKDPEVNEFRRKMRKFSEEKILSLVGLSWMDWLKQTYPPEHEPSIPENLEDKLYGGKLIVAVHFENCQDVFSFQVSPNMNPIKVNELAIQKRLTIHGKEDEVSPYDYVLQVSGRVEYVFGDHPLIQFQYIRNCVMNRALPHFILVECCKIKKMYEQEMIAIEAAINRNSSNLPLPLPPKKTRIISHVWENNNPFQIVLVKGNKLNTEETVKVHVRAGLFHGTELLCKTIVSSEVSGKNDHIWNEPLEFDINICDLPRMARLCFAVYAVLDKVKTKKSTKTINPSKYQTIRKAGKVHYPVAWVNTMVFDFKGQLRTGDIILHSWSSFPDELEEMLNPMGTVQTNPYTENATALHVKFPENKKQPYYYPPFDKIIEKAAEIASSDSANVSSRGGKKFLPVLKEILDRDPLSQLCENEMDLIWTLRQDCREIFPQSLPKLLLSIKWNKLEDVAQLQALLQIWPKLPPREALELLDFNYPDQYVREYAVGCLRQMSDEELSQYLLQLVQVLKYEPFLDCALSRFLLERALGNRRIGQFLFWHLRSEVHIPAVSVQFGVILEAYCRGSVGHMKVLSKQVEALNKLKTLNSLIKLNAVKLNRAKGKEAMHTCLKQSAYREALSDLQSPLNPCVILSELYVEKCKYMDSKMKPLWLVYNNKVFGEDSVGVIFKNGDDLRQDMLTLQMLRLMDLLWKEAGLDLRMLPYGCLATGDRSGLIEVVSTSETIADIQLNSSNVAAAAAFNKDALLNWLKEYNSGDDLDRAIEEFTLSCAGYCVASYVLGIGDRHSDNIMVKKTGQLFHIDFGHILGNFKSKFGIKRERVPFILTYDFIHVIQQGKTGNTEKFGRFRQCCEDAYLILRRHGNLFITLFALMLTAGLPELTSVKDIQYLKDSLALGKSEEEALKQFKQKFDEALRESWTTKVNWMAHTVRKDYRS
T2 sequence (P27986 whole entry partner): as the sequence (P27986 whole entry partner) above

Take `C[C@H]1COCCN1c1nc(-c2ccc(NC(=O)NCC(N)=O)cc2)cc(-c2cc(F)ccc2S(C)(=O)=O)n1` [Example 70, (S)-2-(3-(4-(6-(5-fluoro-2-(methylsulfonyl)phenyl)-2-(3-methylmorpholino)pyrimidin-4-yl)phenyl)ureido)acetamide]: the IC50 on PI3Kγ is no less than 10 µM; at PI3Kβ it was no less than 10 µM; in assay [1], 0.1 to 1 µM; in assay [2] (setting [3]), no less than 10 µM; in assay [2] (setting [4]) it was no less than 10 µM; on mTOR (setting [5]) it was 1 to 10 µM. In addition, the IC50 was 1 to 10 µM at mTOR (setting [6]), no less than 10 µM on PI3Kα, no less than 10 µM at PI3K delta (PI3Kd) (setting [7]) and no less than 10 µM on PI3K delta (PI3Kd) (setting [8]).

As to `C[C@H]1COCCN1c1ccnc(-c2ccc(NC(=O)NC3CC3)cc2)n1` [Example 35, (S)-1-cyclopropyl-3-(4-(4-(3-methylmorpholino)pyrimidin-2-yl)phenyl)urea], the IC50 on PI3Kγ was no less than 10 µM; at PI3Kβ, no less than 10 µM; in assay [1], 0.1 to 1 µM; in assay [2] (setting [3]) it was no less than 10 µM; in assay [2] (setting [4]), no less than 10 µM; at mTOR (setting [5]), 0.1 to 1 µM. The IC50 on mTOR (setting [6]) is 0.1 to 1 µM; on PI3Kα it was no less than 10 µM; at PI3K delta (PI3Kd) (setting [7]) it was no less than 10 µM; on PI3K delta (PI3Kd) (setting [8]), no less than 10 µM.

Turning to `C[C@H]1COCCN1c1cc(-c2cc(F)ccc2S(C)(=O)=O)nc(-c2ccc(NC(=O)NCCF)cc2F)n1` [Example 68, (S)-1-(3-fluoro-4-(4-(5-fluoro-2-(methylsulfonyl)phenyl)-6-(3-methylmorpholino)pyrimidin-2-yl)phenyl)-3-(2-fluoroethyl)urea], the IC50 at PI3Kγ is no less than 10 µM; on PI3Kβ, no less than 10 µM; in assay [1], 0.1 to 1 µM; in assay [2] (setting [3]) it was no less than 10 µM; in assay [2] (setting [4]), no less than 10 µM; on mTOR (setting [5]), 1 to 10 µM. In addition, the IC50 at mTOR (setting [6]) was 1 to 10 µM; at PI3Kα it was no less than 10 µM; on PI3K delta (PI3Kd) (setting [7]), no less than 10 µM; at PI3K delta (PI3Kd) (setting [8]), no less than 10 µM.

`CS(=O)(=O)c1ccc(F)cc1-c1cc(-c2ccc(NC(=O)NC3CC3)cc2)nc(N2CC3CCC(C2)O3)n1` [Example 81, 1-(4-(2-(8-oxa-3-azabicyclo[3.2.1]octan-3-yl)-6-(5-fluoro-2-(methylsulfonyl)phenyl)pyrimidin-4-yl)phenyl)-3-cyclopropylurea]: the IC50 is no less than 10 µM on PI3Kγ; no less than 10 µM on PI3Kβ; less than 0.1 µM in assay [1]; no less than 10 µM in assay [2] (setting [4]); 0.1 to 1 µM at mTOR (setting [6]); no less than 10 µM at PI3Kα. Besides, the IC50 on PI3K delta (PI3Kd) (setting [8]) was no less than 10 µM.

Take `C[C@H]1COCCN1c1cc(-c2ccccc2S(C)(=O)=O)nc(-c2ccc(NC(=O)NCCO)cc2)n1` [Example 80, (S)-1-(2-hydroxyethyl)-3-(4-(4-(3-methylmorpholino)-6-(2-(methylsulfonyl)phenyl)pyrimidin-2-yl)phenyl)urea]: the IC50 was no less than 10 µM on PI3Kγ; no less than 10 µM at PI3Kβ; less than 0.1 µM in assay [1]; no less than 10 µM in assay [2] (setting [4]); less than 0.1 µM on mTOR (setting [6]); no less than 10 µM on PI3Kα. Besides, the IC50 on PI3K delta (PI3Kd) (setting [8]) was no less than 10 µM.

In the case of `CCNC(=O)Nc1ccc(-c2cc(-c3cncc(S(C)(=O)=O)c3)nc(N3CCOC[C@@H]3C)n2)cc1` [Example 15, (S)-1-ethyl-3-(4-(2-(3-methylmorpholino)-6-(5-(methylsulfonyl)pyridin-3-yl)pyrimidin-4-yl)phenyl)urea], the IC50 was no less than 10 µM at PI3Kγ; no less than 10 µM at PI3Kβ; 0.1 to 1 µM in assay [1]; no less than 10 µM in assay [2] (setting [3]); no less than 10 µM in assay [2] (setting [4]); 1 to 10 µM on mTOR (setting [5]). For the same molecule, the IC50 at mTOR (setting [6]) was 1 to 10 µM; at PI3Kα, no less than 10 µM; at PI3K delta (PI3Kd) (setting [7]) it was no less than 10 µM; at PI3K delta (PI3Kd) (setting [8]) it was no less than 10 µM.

As for `C[C@H]1COCCN1c1nc(-c2ccc(NC(=O)NC3COC3)cc2)cc(-c2cc(F)ccc2S(C)(=O)=O)n1` [Example 86, (S)-1-(4-(6-(5-fluoro-2-(methylsulfonyl)phenyl)-2-(3-methylmorpholino)pyrimidin-4-yl)phenyl)-3-(oxetan-3-yl)urea], the IC50 is no less than 10 µM at PI3Kγ; no less than 10 µM on PI3Kβ; 0.1 to 1 µM in assay [1]; no less than 10 µM in assay [2] (setting [4]); 0.1 to 1 µM on mTOR (setting [6]); no less than 10 µM at PI3Kα. Moreover, on PI3K delta (PI3Kd) (setting [8]), the IC50 is no less than 10 µM.

`COC1CC(NC(=O)Nc2ccc(-c3cc(-c4cc(F)ccc4S(C)(=O)=O)nc(N4CCOC[C@@H]4C)n3)cc2)C1` (stereo partly drawn) [Example 79, (S)-1-(4-(6-(5-fluoro-2-(methylsulfonyl)phenyl)-2-(3-methylmorpholino)pyrimidin-4-yl)phenyl)-3-(3-methoxycyclobutyl)urea]: the IC50 at PI3Kγ was no less than 10 µM; on PI3Kβ, no less than 10 µM; in assay [1] it was 0.1 to 1 µM; in assay [2] (setting [4]), no less than 10 µM; at mTOR (setting [6]) it was 1 to 10 µM; at PI3Kα, no less than 10 µM. Besides, the IC50 at PI3K delta (PI3Kd) (setting [8]) was no less than 10 µM.

Regarding `O=C(Nc1ccc(-c2nccc(N3CC4CCC(C3)O4)n2)cc1)NC1CC1` [Example 48, 1-(4-(4-(8-oxa-3-azabicyclo[3.2.1]octan-3-yl)pyrimidin-2-yl)phenyl)-3-cyclopropylurea], the IC50 was no less than 10 µM on PI3Kγ; no less than 10 µM on PI3Kβ; 0.1 to 1 µM in assay [1]; 1 to 10 µM in assay [2] (setting [3]); 1 to 10 µM in assay [2] (setting [4]); 0.1 to 1 µM at mTOR (setting [5]). The IC50 on mTOR (setting [6]) is 0.1 to 1 µM; on PI3Kα it was no less than 10 µM; at PI3K delta (PI3Kd) (setting [7]) it was no less than 10 µM; at PI3K delta (PI3Kd) (setting [8]), no less than 10 µM.

Take `CC(O)CNC(=O)Nc1ccc(-c2cc(-c3cc(F)ccc3S(C)(=O)=O)nc(N3CCOC[C@@H]3C)n2)cc1` (stereo partly drawn) [Example 71, 1-(4-(6-(5-fluoro-2-(methylsulfonyl)phenyl)-2-((S)-3-methylmorpholino)pyrimidin-4-yl)phenyl)-3-(2-hydroxypropyl)urea]: the IC50 was no less than 10 µM on PI3Kγ; no less than 10 µM at PI3Kβ; less than 0.1 µM in assay [1]; no less than 10 µM in assay [2] (setting [3]); no less than 10 µM in assay [2] (setting [4]); 0.1 to 1 µM at mTOR (setting [5]). Besides, the IC50 on mTOR (setting [6]) was 0.1 to 1 µM; on PI3Kα, no less than 10 µM; at PI3K delta (PI3Kd) (setting [7]), no less than 10 µM; on PI3K delta (PI3Kd) (setting [8]), no less than 10 µM.

As for `C[C@H]1COCCN1c1nccc(-c2ccc(NC(=O)NC3CC3)cc2)n1` [Example 39, (S)-1-cyclopropyl-3-(4-(2-(3-methylmorpholino)pyrimidin-4-yl)phenyl)urea], the IC50 at PI3Kγ is no less than 10 µM; on PI3Kβ it was no less than 10 µM; in assay [1] it was 0.1 to 1 µM; in assay [2] (setting [3]) it was no less than 10 µM; in assay [2] (setting [4]), no less than 10 µM; at mTOR (setting [5]), 1 to 10 µM. Further, the IC50 is 1 to 10 µM at mTOR (setting [6]), no less than 10 µM on PI3Kα, no less than 10 µM at PI3K delta (PI3Kd) (setting [7]) and no less than 10 µM at PI3K delta (PI3Kd) (setting [8]).
